# System: Elongator complex protein 1 (ELP1, also referred to as IKBKAP)
# Assay: IKBKAP-HTRF assay (IKBKAP protein in lysates of FD patient-derived fibroblasts)
# Format: cell-based, human
# Settings: 48 hours incubation, 7-point concentration curve
# Summary of the method: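 Sandwich HTRF with two labelled anti-IKAP antibodies (overnight, 4 °C) measured IKBKAP in lysates of FD patient fibroblasts. Cells were exposed to compound for 48 h at 37 °C (7-point curve, 3.16-fold steps, triplicates). EC2x is the dose doubling IKBKAP versus DMSO control; MFI is sample ΔF divided by vehicle ΔF.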
Compound,EC2x for IKBKAP protein expression (concentration producing two times the amount of IKBKAP protein vs DMSO vehicle control),MFI (maximum fold increase in IKBKAP protein abundance relative to the vehicle control)
"C[C@H](N)C(O)c1sc2c(NCc3cccs3)cc(Cl)nc2c1Br (stereo partly drawn) [Compound 155, (2S)-2-amino-1-(3-bromo-5-chloro-7-{[(thiophen-2-yl)methyl]amino}thieno[3,2-b]pyridin-2-yl)propan-1-ol]",* (An EC2x>1 μM is indicated by one star (*)),* (An MFI≤1.9 is indicated by one star (*))
"C[C@H](N)C(=O)c1sc2c(NCc3cccs3)cc(Cl)nc2c1Br [Compound 156, (2S)-2-amino-1-(3-bromo-5-chloro-7-{[(thiophen-2-yl)methyl]amino}thieno[3,2-b]pyridin-2-yl)propan-1-one]",*** (between >0.02 μM and ≤0.5 μM is indicated by three stars (***)),*** (between >2.9 and ≤3.9 is indicated by three stars (***))
"C[C@H](N)C(=O)c1sc2c(NCc3ccco3)cc(Cl)nc2c1Br [Compound 157, (2S)-2-amino-1-(3-bromo-5-chloro-7-{[(furan-2-yl)methyl]amino}thieno[3,2-b]pyridin-2-yl)propan-1-one]",*** (between >0.02 μM and ≤0.5 μM is indicated by three stars (***)),**** (between >3.9 and ≤4.9 is indicated by four stars (****))
"C[C@H](N)C(F)c1sc2c(NCc3cccs3)cc(Cl)nc2c1Br (stereo partly drawn) [Compound 158, 2-[(2S)-2-amino-1-fluoropropyl]-3-bromo-5-chloro-N-[(thiophen-2-yl)methyl]thieno[3,2-b]pyridin-7-amine]",***** (≤0.005 μM is indicated by five stars (*****)),***** (>4.9 is indicated by five stars (*****))
"C[C@H](N)C(O)c1sc2c(NCc3nccs3)cc(Cl)nc2c1Br (stereo partly drawn) [Compound 159, (2S)-2-amino-1-(3-bromo-5-chloro-7-{[(1,3-thiazol-2-yl)methyl]amino}thieno[3,2-b]pyridin-2-yl)propan-1-ol]",*** (between >0.02 μM and ≤0.5 μM is indicated by three stars (***)),** (between >1.9 and ≤2.9 is indicated by two stars (**))
"C[C@H](N)C(=O)c1sc2c(NCc3nccs3)cc(Cl)nc2c1Br [Compound 160, (2S)-2-amino-1-(3-bromo-5-chloro-7-{[(1,3-thiazol-2-yl)methyl]amino}thieno[3,2-b]pyridin-2-yl)propan-1-one]",*** (between >0.02 μM and ≤0.5 μM is indicated by three stars (***)),**** (between >3.9 and ≤4.9 is indicated by four stars (****))
"C[C@H](N)C(F)c1sc2c(NCc3nccs3)cc(Cl)nc2c1Br (stereo partly drawn) [Compound 161, 2-[(2S)-2-amino-1-fluoropropyl]-3-bromo-5-chloro-N-[(1,3-thiazol-2-yl)methyl]thieno[3,2-b]pyridin-7-amine]",***** (≤0.005 μM is indicated by five stars (*****)),*** (between >2.9 and ≤3.9 is indicated by three stars (***))
"N[C@@H](CO)Cc1cc2nc(Cl)cc(NCc3cccs3)c2s1 [Compound 162, (2R)-2-amino-3-(5-chloro-7-{[(thiophen-2-yl)methyl]amino}thieno[3,2-b]pyridin-2-yl)propan-1-ol]",***** (≤0.005 μM is indicated by five stars (*****)),**** (between >3.9 and ≤4.9 is indicated by four stars (****))
"Cc1c(NC[C@H](C)N)sc2c(NCc3cccs3)cc(Cl)nc12 [Compound 163, N^2-[(2S)-2-aminopropyl]-5-chloro-3-methyl-N^7-[(thiophen-2-yl)methyl]thieno[3,2-b]pyridine-2,7-diamine]",*** (between >0.02 μM and ≤0.5 μM is indicated by three stars (***)),**** (between >3.9 and ≤4.9 is indicated by four stars (****))
"Cc1c(NC[C@@H](C)N)sc2c(NCc3cccs3)cc(Cl)nc12 [Compound 164, N^2-[(2R)-2-aminopropyl]-5-chloro-3-methyl-N^7-[(thiophen-2-yl)methyl]thieno[3,2-b]pyridine-2,7-diamine]",*** (between >0.02 μM and ≤0.5 μM is indicated by three stars (***)),*** (between >2.9 and ≤3.9 is indicated by three stars (***))
"C[C@@H](O)[C@H](N)Cc1sc2c(NCc3ccco3)cc(Cl)nc2c1Br [Compound 165, (2R,3R)-3-amino-4-(3-bromo-5-chloro-7-{[(furan-2-yl)methyl]amino}thieno[3,2-b]pyridin-2-yl)butan-2-ol]",***** (≤0.005 μM is indicated by five stars (*****)),***** (>4.9 is indicated by five stars (*****))
"C#C[C@H](N)Cc1sc2c(NCc3ccco3)cc(Cl)nc2c1Cl [Compound 166, 2-[(2R)-2-aminobut-3-yn-1-yl]-3,5-dichloro-N-[(furan-2-yl)methyl]thieno[3,2-b]pyridin-7-amine]",***** (≤0.005 μM is indicated by five stars (*****)),**** (between >3.9 and ≤4.9 is indicated by four stars (****))
"C[S+]([O-])C[C@H](N)Cc1sc2c(NCc3ccco3)cc(Cl)nc2c1Cl (stereo partly drawn) [Compound 167, [(2R)-2-amino-3-(3,5-dichloro-7-{[(furan-2-yl)methyl]amino}thieno[3,2-b]pyridin-2-yl)propyl](methyl)sulfaniumolate]",***** (≤0.005 μM is indicated by five stars (*****)),***** (>4.9 is indicated by five stars (*****))

# Reference: US12384797B2, “Thioeno[3,2-b] pyridin-7-amine compounds for treating familial dysautonomia” (PTC THERAPEUTICS, INC., priority 2019, dated 2025)
